Experimental findings from paper PMC7804942, “The amphibian peptide Yodha is virucidal for Zika and dengue viruses” (Scientific Reports, 2021) are described below.

As usually defined, the IC50 is the concentration that gives 50% inhibition. The low end stands for greater potency, the high end for weaker potency.

Assay [1] concerns ZIKV. As to the kind of experiment: ZIKV entry into Vero cells, viral RNA by qRT-PCR. The class given is cell-based, Zika virus. The conditions noted are these: ZIKV treated with 200 µM peptide for 30 min, MOI 0.5, 30 min infection, qRT-PCR normalised to GAPDH. Here is the method: (§1) Next, we determined whether the observed Yodha peptide-induced decrease in viral titers was due to blocked viral entry. We reasoned that if the peptide directly kills or disrupts the envelope structure of ZIKV, this would prevent virus entry. To test this, we designed an experiment to measure virus entry, by allowing ZIKV to bind cells at 4 °C for 1 h followed by shifting the cells to 37 °C to permit virus entry (Fig. 2A). It has been shown that DENV2 entry occurs within 25 min by early endosome trafficking. Briefly, we exposed ZIKV to Yodha peptide and then allowed the virus to infect Vero cells for 30 min. We then measured viral RNA within the Vero cells by quantitative Real Time-PCR (qRT-PCR) (Fig. 2B). […] Next, we visualized ZIKV entry or lack thereof by immunofluorescence using antibodies against pan flavivirus E protein. […] We collected culture supernatants at 3, 24, 48, and 72 h after ZIKV infection to quantitate ZIKV by FFU assay (Fig. 2E). ZIKV was not detected at 3 h post-infection in both OVA- or Yodha-treated cells. […]
Figure 2 Yodha peptide inhibits ZIKV entry into cells. […] (B) ZIKV was treated with 200 µM of Yodha or control OVA peptide for 30 min and then used to infect Vero cells at a MOI of 0.5 and expression of ZIKV RNA was determined by quantitative RT-PCR (qRT-PCR). […] Error bars indicate the SEM of four technical replicates statistical significance was assessed by a 2-way ANOVA. […]
In general terms: Quantitative PCR measures a nucleic acid by following its amplification.

The subject of a further assay is ZIKV (PRVABC59 strain). Conditions: for reduction of ZIKV: dose escalation. Here is the method:
We screened frog skin peptides to identify peptides with potentially virucidal activity against ZIKV infection. Briefly, we incubated individual peptides with ZIKV (PRVABC59 strain) for 2 h and then tested viral viability in a focus-forming assay. […] A significant drawback of host defense peptides is that they can be toxic to mammalian cells. To identify non-toxic candidates among the 12 peptides, we measured the toxicity of each peptide against human erythrocytes. […] The C-terminus of Yodha peptide contains three negatively charged amino acids.
[…] This incubated mixture was used to infect Vero cells for 1.5 h at 37 °C. Cells and inoculum were overlaid with 2% methylcellulose solution (OptiMEM; Gibco) and incubated for 72 h at 37 °C. Cells were washed with PBS and fixed with a 1:1 methanol/acetone mixture for 30 min. Cells were blocked with 5% milk/PSB at room temperature for 20 min and incubated with primary antibody (anti-flavivirus mouse 4G2[10] antibody) for 2 h at 37 °C. Then, cells were incubated with secondary antibody (HRP-conjugated goat anti-mouse IgG, Cell Signaling) for 1 h at 37 °C. Cells were developed with TrueBlue Peroxidase Substrate (KPL). Plates were read on a CTL-ImmunoSpot S6 Micro analyzer.

Assay [2] deals with ZIKV. The experiment in a line: Post-infection treatment of ZIKV-infected Vero cells, FFU assay of supernatants. The class given is cell-based, Zika virus. Conditions: 40 µM peptide added after infection, FFU of supernatant. On the procedure: as §1
Figure 2 Yodha peptide inhibits ZIKV entry into cells. […] (B) ZIKV was treated with 200 µM of Yodha or control OVA peptide for 30 min and then used to infect Vero cells at a MOI of 0.5 and expression of ZIKV RNA was determined by quantitative RT-PCR (qRT-PCR). […] Error bars indicate the SEM of four technical replicates statistical significance was assessed by a 2-way ANOVA.

A further assay relates to ZIKV (PRVABC59). As to the kind of experiment: ZIKV entry, immunofluorescence of flavivirus E protein in Vero cells. The class given is cell-based, Zika virus. The conditions noted are these: ZIKV exposed to peptide, then Vero cells infected for 30 min. Here is the method:
Next, we determined whether the observed Yodha peptide-induced decrease in viral titers was due to blocked viral entry. We reasoned that if the peptide directly kills or disrupts the envelope structure of ZIKV, this would prevent virus entry. To test this, we designed an experiment to measure virus entry, by allowing ZIKV to bind cells at 4 °C for 1 h followed by shifting the cells to 37 °C to permit virus entry (Fig. 2A). It has been shown that DENV2 entry occurs within 25 min by early endosome trafficking. Briefly, we exposed ZIKV to Yodha peptide and then allowed the virus to infect Vero cells for 30 min. We then measured viral RNA within the Vero cells by quantitative Real Time-PCR (qRT-PCR) (Fig. 2B). […] Next, we visualized ZIKV entry or lack thereof by immunofluorescence using antibodies against pan flavivirus E protein. […] Next, we sought to determine if Yodha peptide could reduce infectious virus production in cells already infected with ZIKV. Briefly, we infected Vero cells, allowed virus attachment and entry, and then added Yodha peptide to the culture medium at 1, 24, 48, and 72 h post-infection. We collected culture supernatants at 3, 24, 48, and 72 h after ZIKV infection to quantitate ZIKV by FFU assay (Fig. 2E). ZIKV was not detected at 3 h post-infection in both OVA- or Yodha-treated cells. […]

SMILES strings stand for the structures. Like-named read-outs stand apart in the source and are kept apart here. Where a SMILES comes first, the peptide text is derived from it. Some results are limits rather than exact numbers.

With `CC[C@H](C)[C@H](NC(=O)[C@@H](NC(=O)CNC(=O)[C@H](CC(C)C)NC(=O)[C@H](Cc1ccccc1)NC(=O)[C@H](Cc1ccccc1)NC(=O)[C@H](CC(C)C)NC(=O)[C@H](CC(C)C)NC(=O)[C@H](CC(C)C)NC(=O)[C@H](CCSC)NC(=O)[C@@H](N)CO)[C@@H](C)O)C(=O)N[C@@H](CO)C(=O)N[C@@H](CC(C)C)C(=O)N[C@@H](CO)C(=O)N[C@@H](CC(C)C)C(=O)N[C@@H](CS)C(=O)N[C@@H](CCC(N)=O)C(=O)N[C@@H](CC(=O)O)C(=O)N[C@@H](CC(=O)O)C(=O)N[C@@H](CCC(N)=O)C(=O)N[C@@H](CCC(=O)O)C(=O)N[C@@H](CCCNC(=N)N)C(=O)N[C@@H](CS)C(=O)O` [Yodha] (H-SMLLLFFLGTISLSLCQDDQERC-OH; N-terminus and C-terminus assumed), the “ZIKV RNA expressed compared to the OVA and virus-only controls” value with ZIKV [1] stood at 20%. The “reduction of ZIKV” value was 35% in the assay with ZIKV (PRVABC59 strain) (10 µM peptide, FFA); 50% with ZIKV (PRVABC59 strain) (20 µM peptide, FFA); 65% in the assay on ZIKV (PRVABC59 strain) (40 µM peptide, FFA); 80% in the assay on ZIKV (PRVABC59 strain) (80 µM peptide, FFA); 90% with ZIKV (PRVABC59 strain) (160 µM peptide, FFA). The “Viral titers (FFU) after timed exposure” value in the assay on ZIKV (PRVABC59 strain) (20 µM peptide, exposure 5 min, 15 min, 30 min, 1 h and 2 h, all time points) is listed as “significantly decreased”. Also, the “inhibition of ZIKV strain” value in the assay with ZIKV (PRVABC59 strain) (50 µM and 100 µM peptide vs OVA control, FFA) is “inhibited”. In the assay on ZIKV (PRVABC59 strain) (PRVABC59 strain, 2 h), this compound showed an IC50 of 20 µM. Besides, in the assay on ZIKV (PRVABC59 strain) (exposure of virus to peptide), the “time of exposure needed to neutralize / destroy ZIKV” value is not above 5 min. Besides, the “reduction in ZIKV production” value with ZIKV [2] (48 h post-infection) and with ZIKV [2] (72 h post-infection) was 60–70% throughout. Moreover, the “expression of ZIKV envelope in cells (immunofluorescence)” value in the assay with ZIKV (PRVABC59) is recorded as “decreased expression of ZIKV envelope”.
